Tests used:
[1] = test system: mice; experiment: Acetic acid mouse writhing test (analgesic effects); type: in vivo, male CD-1 mice; conditions: subcutaneous, 0.5% acetic acid i.p. 15 min post drug, writhes counted over 20 min; for ED50: Mus musculus, sc, read-out: ED50 (dose required to reduce the number of writhes by 50%)
Method: (A) Analgesic effects upon mice (acetic acid writhing test).
Acetic Acid Mouse Writhing Test
Analgesic effects of the test compounds were determined in mice by use of the acetic acid writhing test described by B. A. Whittle, Brit. J. Pharmacol., 22:246 (1964). In this test, at least 3 groups of 5 male CD-1 mice each were given subcutaneous doses of the test drug dissolved in distilled water. In all cases, 0.4 milliliters of a 0.5% V/V acetic acid in distilled water solution was administered intraperitoneally 15 minutes post drug. The number of writhes in a 20 minute interval beginning 5 minutes after the acetic acid injection were determined and compared with the number of writhes in a control group which had received only acetic acid.
Percent inhibition of writhing was calculated as: [formula]
The ED50 dose, i.e., the dose required to reduce the number of writhes by 50%, was determined graphically from a plot of % inhibition as a probit verus log dose. Confidence limits of 95% were calculated on the basis of those results falling in the range 16-84% inhibition. See Lichtfield, J. T. and Wilcoxon, F., J. Pharmacol. Exp. Ther., 96, 99-113 (1949).

[2] = test system: rats; experiment: Narcotic antagonist activity, modified rat tail flick test (against ED80 dose of morphine); type: in vivo, male albino Wistar rats; conditions: ip, test drug intraperitoneally, ED80 dose of morphine s.c. 10 min later, retest 20 min after morphine, read-out: AD50 (dose required to inhibit the effect of morphine by 50%)
Method: (B) Narcotic antagonist activity in rats (modified rat tail flick test).
Evaluation of Narcotic Antagonist Activity
The narcotic antagonist effect of the test compound was determined by a modification of the rat tail flick procedure of Harris and Pierson (J. Pharmacol. Exp. Ther., 143:141 [1964]).
Male albino Wistar rats (100-120 g) were used for this study. A rat's tail is so placed so as to cover a photocell. Heat is applied by a lamp in a reflector with a timer being connected to the lamp and photocell so that the timer goes on when the light is turned on and is turned off when the photocell is uncovered. A rheostat, incorporated into a heating lamp, is used to adjust the intensity of the light falling on the tail of the rat such that the rat's control reaction time is from 2 to 4 seconds. Animals with a control reaction time outside this range are rejected. The rheostat adjustment is made only if a significant proportion (1 out of every 10 rats) of the reaction times are outside the range of 2 to 4 seconds. Groups of 5 rats were used, and 2 control times were determined at 60 and 30 minutes prior to […] injection of the drug.
At least 30 minutes after the last control run the test drug was given intraperitoneally. This was followed 10 minutes later by an ED80 dose of morphine subcutaneously. The animals were retested at 20 minutes after the morphine injection. Control animals were given vehicle and morphine only. The data were calculated as follows: [formula]
The data were plotted on log-probit paper and AD50 values, i.e., the dose required to inhibit the effect of morphine by 50% within 95% confidence limits, were determined by the method of Lichtfield and Wilcoxon.

Row | Compound | ED50 [1] [mg/kg] | ED50 [2] [mg/kg] | ED50 (dose required to reduce the number of writhes by 50%) [1]
1 | CCOC(=O)C1C[C@@H]2[C@H]3Cc4ccc(O)cc4[C@@]2(CCN3C)CC1=O (stereo partly drawn) [TR-5338, 7-carboethoxy-3-hydroxy-17-methyl-14α-morphinan-6-one] | 0.6 | 0.7 | –
2 | CCOC(=O)C1C[C@@H]2[C@H]3Cc4ccc(OC)cc4[C@@]2(CCN3CC2CC2)CC1=O (stereo partly drawn) [TR-5337, 7-carboethoxy-17-cyclopropylmethyl-3-methoxy-14α-morphinan-6-one] | – | > 10 | IA 10.0
3 | CCOC(=O)C1C[C@H]2[C@H]3Cc4ccc(OC)cc4[C@@]2(CCN3C)CC1=O (stereo partly drawn) [TR-5318, 7-carboethoxy-3-methoxy-17-methylmorphinan-6-one] | 4.6 | – | –
4 | CCOC(=O)C1C[C@H]2[C@H]3Cc4ccc(O)cc4[C@@]2(CCN3CC2CC2)CC1=O (stereo partly drawn) [TR-5308, 7-carboethoxy-17-cyclopropylmethyl-3-hydroxy-morphinan-6-one] | 4.9 | 3.12 | –
5 | CCOC(=O)C1CC2C3Cc4ccc(OC)cc4C2(CCN3CC2CCC2)CC1=O (stereo not drawn) [TR-5300, 7-carboethoxy-17-cyclobutylmethyl-3-methoxy-morphinan-6-one] | – | 13 | IA 10.0
6 | CCOC(=O)C1C[C@H]2[C@H]3Cc4ccc(O)cc4[C@@]2(CCN3C)CC1=O (stereo partly drawn) [TR-5320, 7-carboethoxy-3-hydroxy-17-methylmorphinan-6-one] | 0.72 | 3.6 | –
7 | CCOC(=O)C1C[C@@H]2[C@H]3Cc4ccc(O)cc4[C@@]2(CCN3CC2CC2)CC1=O (stereo partly drawn) [TR-5339, 7-carboethoxy-17-cyclopropylmethyl-3-hydroxy-14α-morphinan-6-one] | 3.7 | 2.54 | –
8 | CCOC(=O)C1C[C@@H]2[C@H]3Cc4ccc(OC)cc4[C@@]2(CCN3C)CC1=O (stereo partly drawn) [TR-5336, 7-carboethoxy-3-methoxy-17-methyl-14α-morphinan-6-one] | > 10 | – | –
9 | CCOC(=O)C1C[C@H]2[C@H]3Cc4ccc(OC)cc4[C@@]2(CCN3CC2CC2)CC1=O (stereo partly drawn) [TR-5299, 7-carboethoxy-17-cyclopropylmethyl-3-methoxy-morphinan-6-one] | > 10 | 13 | –
10 | CCOC(=O)C1C[C@H]2[C@H]3Cc4ccc(O)cc4[C@@]2(CCN3CC2CCC2)CC1=O (stereo partly drawn) [TR-5307, 7-carboethoxy-17-cyclobutylmethyl-3-hydroxy-morphinan-6-one] | 1.15 | > 10 | –

From patent publication US4423221A, “7-Carboethoxy-morphinan-6-one compounds” (SISA Pharmaceutical Laboratories, Inc., priority 1982, dated 1983)
